Values joined by “and” are separate entries in the source; they are usually repeats but may differ in a detail not shown here. Equal values may be shown once.

Holding throughout (type): in vivo
One data set deals with Cockroaches. Kind of data set: Cockroach toxicity by forced exposure on treated filter paper. The note with it: forced exposure 24 hours. How it is done:
Additionally, toxicity was determined by forced exposure testing under the following protocol. Filter paper circles were treated with test compound. Cockroaches were released onto the treated circles and covered with inverted plastic cylinders placed over the paper discs. The cockroaches were left on the substrates for 24 hours and checked for mortality.

The test system of another data set is German cockroaches. Put plainly: German cockroach repellency, choice of food stations in arena. The settings on record: 50% in acetone; at 4 hours. The procedure: The efficacy of compounds of this invention to control or repel German cockroaches was illustrated using the following protocol. One food pellet each was placed on a paper square (station) treated with one of the repellent materials. Materials were diluted to 50% in acetone and a straight acetone station was also used. Both stations were placed on the same side of the arena. Cockroaches were starved for 2 days and then released into the arena. They were given a choice to feed on either food pellet. A control arena with an acetone treated station and an untreated station was also used. The distribution of cockroaches within the arena was recorded at 30 minute intervals over 4 hours. Repellency at 4 hours was calculated by the number of cockroaches on the untreated station vs. the total number of cockroaches on the stations.

The test system of the next data set is Brown Dog Ticks. Kind of data set: Second repellent assay against Brown Dog Ticks. The settings on record: 15% in isopropyl alcohol. The procedure: Also, a second repellent assay was used to evaluate six test samples against Brown Dog Ticks. Five replicates of five ticks were given the opportunity to quest onto a vertical strip of untreated filter paper and then allowed to move upward toward a second vertical strip of filter paper treated with one of the six candidate repellents or DEET®. In the control situation, the second strip was treated with isopropanol. They were then observed for directional or behavioral changes caused in response to contact with the repellent. Ticks were recorded as either repelled or not repelled. Compounds were diluted in isopropyl alcohol. The percentages of ticks repelled are shown below in Table 6.

For the next data set, the system named is house flies. Put plainly: House fly repellency on treated filter paper food trays in cages. The note with it: over 6 hours. How it is done:
The bottom of each cage was lined with brown craft paper and divided into 4 equal quadrants. Each quadrant housed a makeshift filter paper food tray. Two of the four filter papers were treated with repellent and two treated with isopropanol. Control cages contained filter papers that were treated with 4 filter papers of isopropanol only. The number of flies resting on filter paper per quadrant was recorded every 30 minutes for a total of 6 hours. Cages were rotated to eliminate positional bias. […] Each of the test samples were diluted in isopropyl alcohol.

Data set [1] relates to brown marmorated stink bugs (BMSB). Put plainly: Brown marmorated stink bug repellency, treated vs. untreated filter paper arena. The procedure:
The two semi-circle filter papers were aligned together to completely cover the bottom of the test arena. Control arenas were also set up in a similar fashion except both were treated with acetone. Five replicates of 5 BMSB were then introduced into both the treated and control arenas. By releasing them in the center of the arena, the BMSB were presented with a choice of treated vs. untreated substrate (or untreated vs. untreated in the control arenas). The repellency of the BMSB was recorded at 24 hours post-treatment.

For a further data set, the system named is Black Widow spiders. Put plainly: Black Widow spider choice test in half-treated tube shelters. The note with it: 5% in isopropanol; location after 24 hours. The procedure: Control against Black Widow spiders was determined using the following protocol. One test container containing two card stock tube shelters, one half treated with a test sample and the other half treated with isopropanol was prepared. A spider was introduced in the center of the tube. The spider was then given a choice to move to one end of the shelters. The following day, its location is recorded and compared to the results from a shelter containing untreated half-shelters.
On the day of the test one of the two shelters was sprayed with the test sample solution using a 2 oz pump spray bottle. Only the surfaces that the spider will most likely contact were treated. Therefore, only the inside of one of the shelter tubes, including the end disc (spiders will not be able to access the outside part of the shelter) were sprayed. The total amount of product was weighed and recorded. The treated surface was allowed to dry for a minimum of ½ hour, or until solvent could not be detected by smell. At this time the shelter tubes were assembled.
Card stock paper tube shelters were constructed from 2 half-letter sized sheets (5½″×8½″) of paper, rolled and taped together to form a short tube. One end of each was covered with a circle of card stock paper, while the other end was later taped to the open end of the other half sheet, forming one long tube. […] The solvent-treated half was labeled with a “C” on the inner and outer walls with a pencil or a pen with solvent resistant ink. Prior to forming the final tube shelter, a semi-circular hole was cut into one of the margins of each sheet such that, once the two tubes are taped together, the holes correspond to the top and at the junction of the tubes for introduction of the spiders.
Twenty-five arenas were prepared in this manner for each test sample. There were five replicates of five spiders. Twenty-five additional control arenas were also prepared. They were prepared the same way, except that areas to be sprayed were sprayed with isopropanol only.
Replicates of five spiders were selected for each test formulation and for the control. The specimens were visually examined for overall physical condition. […] The spiders were transferred directly into the holding vials using flexible forceps or with a little coaxing with an artist brush. Because of their cannibalistic tendencies, each vial contained only one spider. There they were held until the time for testing.
At the test start the spiders were placed directly in the middle, through the opening at the top of the shelter tube, and the opening covered, with only one spider per arena. […] They were left alone for 24 hours, after which time their location within the arena was recorded. Spiders present inside the shelter treated with the test repellent were considered tolerant.

In the next data set the test system is stable flies. Kind of data set: Human forearm test against stable flies, time to first confirmed bite. The note with it: 30% in isopropyl alcohol on forearm; average of two trials; maximum 8 hours. The procedure: Two insect repellents per day were tested by applying one on each arm of a human subject and inserting the arms into a cage containing 50 stable flies. The exposure period was five minutes at every 30 minute interval until the first time a confirmed bite was […] The stable flies were reared at ambient temperature, relative humidity and photoperiod. Groups of 50 flies were aspirated from the cage and released into 16 oz. cups with screened lids, which were used to release flies into the two test cages. […] Adjacent areas above and below the treated area were protected with elastic bandages held in place with Elastikon® surgical tape.
The application rate was between 0.65 ml and 1 ml/250 cm^2 for all repellents. The actual amount of repellent used was based upon the amount that provides thorough coverage of the 250 cm^2 treatment area. A repellent was applied using either a micropipette or a syringe minus the needle. The repellents were then evenly spread on the treatment area with a gloved finger. Each test subject's forearms were allowed to air dry for approximately 30 minutes prior to the first exposure. The study coordinator or technician assisted the test subjects in inserting their arms into the test cages, taking care not to rub them on the cloth sleeve. Both treated arms were inserted into a cage; there were two subjects (4 arms) per cage. The test subjects exposed their treated forearms to the flies in the test cages for 5 minutes. The subjects then removed their arms from the cages with assistance from the study coordinator or a technician. Exposures of each arm were repeated every 30 minutes until the repellent on that arm was determined to be no longer effective (‘breakdown’) or until 8 hours have elapsed, whichever occurs first.
Breakdown occurs when the first confirmed bite is noted. A confirmed bite occurs when a bite is followed by a second bite in the same exposure period or in the next succeeding exposure period. The second bite becomes the confirming bite and the breakdown time is taken as the time of the first bite. When a confirmed bite occurs, testing is discontinued on that arm. Results in Table 3 below are the average of two trials on two different test subjects. Compounds were diluted in isopropyl alcohol.

Data set [2] concerns Brown Dog Ticks, Rhipicephalus sanguineus. Put plainly: Brown Dog tick repellency on vertical filter paper strips. The settings on record: 7.5% in isopropyl alcohol. The procedure: Control against Brown Dog ticks was determined in the following protocol. Strips of filter paper, 1″ by 3″, were placed on a sheet of aluminum foil treated with 1 ml each of the test samples and allowed to dry. The end of each treated strip was stapled to an untreated filter paper strip of the same dimensions. The stapled strips were suspended in a vertical position above a tray, with the treated half attached to a horizontal glass rod by a metal clip. The untreated half was lowered when the strip is vertically positioned. Brown Dog Ticks, Rhipicephalus sanguineus, mixed sexes, were purchased from a supplier. Five replicates of five ticks for each treatment regimen plus five additional replicates for the control were employed. Ticks shipped to the test site were given at least one day to acclimate to “shipping stress” before they are used for testing. Those tick specimens which appeared sluggish or moribund were not used. Suitable ticks were removed from their containers and allowed to quest on the free end of the test strip. Once present on the strip they were watched as they crawled up the strip until they contacted the treated paper. If the tick, once in contact with the treated zone, either turned around, stopped without proceeding further, or dropped off, the tick is classified as repelled. If it continued to crawl onto the treated strip, even after it stopped briefly, that tick was classified as not repelled. A maximum observation time of 1 minute per replicate was allowed for ticks to respond after reaching the treated area, but during the test, if more time was needed, the maximum observation time may have been adjusted at the discretion of the study coordinator. At the end of the observation time, the number of ticks repelled was recorded. Tick behavior was recorded when applicable, such as whether increased number of affected or repelled ticks occurred in successive replicates over time. After the completion of each treatment parameter, the testing chamber was ventilated for five minutes by turning on the exhaust fan and opening the door leading into the chamber. Ticks were used only once. Average number of ticks displaying each behavior category were calculated and compared to the control replicates.

Turning to `CCCCCCCC1CC(=O)C=C(C)C1` (centres unmarked) [3-Methyl-5-heptyl-2-cyclohexenone, 3-methyl-5-heptyl-2-cyclohexenone], in the data set on Cockroaches (2.5% in acetone), the “Mortality @ 24 hours” value amounted to 10%.
Turning to `CCCCCC1CC(=O)C=C(C)C1` (centres unmarked) [3-Methyl-5-pentyl-2-cyclohexenone, 3-methyl-5-pentyl-2-cyclohexenone], the “Mortality @ 24 hours” value with Cockroaches (2.5% in acetone) is given as 96%.
Turning to `CCCCCCCCCCC1CCC(=O)O1` (centres unmarked) [gamma-Tetradecalactone, gamma-tetradecalactone], the “Mortality @ 24 hours” value in the data set on Cockroaches (neat) was found to be 46%. For the same compound, the “% Repellency 4 hr” value in the data set on German cockroaches was 82.4% and 75%. Further, the “Mean % repelled” value in the data set with Brown Dog Ticks is given as 92%. The “Overall % Repellency” value in the data set with house flies (7.5% in isopropyl alcohol) is 80%. Further, the “% Repellency at 24 hours” value turned out to be 82% in data set [1] (2.5% in isopropyl alcohol) and 91% in data set [1] (5% in isopropyl alcohol).
Regarding `CCCCCC1C(=O)CCC1CC(=O)OCCC` (centres unmarked) [Propyl dihydrojasmonate, propyl dihydrojasmonate], the “% Repellency” value with Black Widow spiders was found to be 62.5%. For the same compound, the “100% bite protection for” value in the data set on stable flies came out at 4 h. In addition, the “% Repellency 4 hr” value in the data set with German cockroaches worked out at 87.5%. Also, the “Mean % repelled” value with Brown Dog Ticks was 100%; in data set [2], 96%. In addition, the entries for the “Overall % Repellency” value in the data set on house flies (5% in isopropyl alcohol) and in the data set on house flies (7.5% in isopropyl alcohol) were 52% and 23%, respectively. The “% Repellency at 24 hours” value in data set [1] (2.5% in isopropyl alcohol) is reported as 80%; in data set [1] (5% in isopropyl alcohol) it was 100%.
For `CCCCCCCCCCCCCC1CCC(=O)O1` (centres unmarked) [gamma-Heptadecalactone], the “Mortality @ 24 hours” value in the data set on Cockroaches (neat) was determined as 22%. In the data set on German cockroaches, the “% Repellency 4 hr” value is 100%. Moreover, in the data set on house flies (7.5% in isopropyl alcohol), the “Overall % Repellency” value worked out at 39%.
